Experimental data published in US8217035B2, “Pyrimidine derivatives used as PI-3-kinase inhibitors” (Novartis AG, priority 2006, dated 2012).
Where two headings read alike, the source gives them in different places.

Assays:
[1] = target: PI3 kinase alpha (Homo sapiens, UniProt P42336); assay: PI3K ATP depletion assay (Biological Method 1, Assay 3; KinaseGlo luminescence); format: biochemical; details: ATP depletion assay, read-out: PI3 Kinase Alpha, IC50
In short: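 Compound in DMSO was mixed with 10 nM PI3 kinase and 5 μg/mL phosphatidylinositol, and the reaction was started with 2 μM ATP. It ran to about 50% ATP depletion and was stopped with KinaseGlo.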

[2] = system: pSer473 Akt in A2780 cells; assay: pSer473 Akt assay to monitor PI3K pathway in A2780 cells (Biological Method 2, MSD); format: cell-based; details: Homo sapiens, inhibition of Akt phosphorylation
In short: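 A2780 ovarian cancer cells in DMEM/10% FBS were treated with compound for 1 h at 37 °C, then lysed. pSer473-Akt and total Akt were measured by MSD electrochemiluminescence immunoassay. The pSer473/total Akt ratio gave % inhibition versus DMSO, from which EC50 was derived.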

[3] = system: A2780 ovarian cancer cells; assay: Cellular proliferation in A2780 cells, Cell Titer Glo (Biological Method 4); format: cell-based; details: Homo sapiens
In short: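 Viability after 72 h compound exposure (37 °C, 5% CO2) was read by Cell Titer Glo and an EC50 derived, each condition in duplicate. A2780 ovarian cells had been plated at 1,000 per well in DMEM/10% FBS at least 2 h beforehand.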

[4] = ovarian cancer cell line A2780, Biological Method 4

Sequence of PI3 kinase alpha (P42336 whole entry): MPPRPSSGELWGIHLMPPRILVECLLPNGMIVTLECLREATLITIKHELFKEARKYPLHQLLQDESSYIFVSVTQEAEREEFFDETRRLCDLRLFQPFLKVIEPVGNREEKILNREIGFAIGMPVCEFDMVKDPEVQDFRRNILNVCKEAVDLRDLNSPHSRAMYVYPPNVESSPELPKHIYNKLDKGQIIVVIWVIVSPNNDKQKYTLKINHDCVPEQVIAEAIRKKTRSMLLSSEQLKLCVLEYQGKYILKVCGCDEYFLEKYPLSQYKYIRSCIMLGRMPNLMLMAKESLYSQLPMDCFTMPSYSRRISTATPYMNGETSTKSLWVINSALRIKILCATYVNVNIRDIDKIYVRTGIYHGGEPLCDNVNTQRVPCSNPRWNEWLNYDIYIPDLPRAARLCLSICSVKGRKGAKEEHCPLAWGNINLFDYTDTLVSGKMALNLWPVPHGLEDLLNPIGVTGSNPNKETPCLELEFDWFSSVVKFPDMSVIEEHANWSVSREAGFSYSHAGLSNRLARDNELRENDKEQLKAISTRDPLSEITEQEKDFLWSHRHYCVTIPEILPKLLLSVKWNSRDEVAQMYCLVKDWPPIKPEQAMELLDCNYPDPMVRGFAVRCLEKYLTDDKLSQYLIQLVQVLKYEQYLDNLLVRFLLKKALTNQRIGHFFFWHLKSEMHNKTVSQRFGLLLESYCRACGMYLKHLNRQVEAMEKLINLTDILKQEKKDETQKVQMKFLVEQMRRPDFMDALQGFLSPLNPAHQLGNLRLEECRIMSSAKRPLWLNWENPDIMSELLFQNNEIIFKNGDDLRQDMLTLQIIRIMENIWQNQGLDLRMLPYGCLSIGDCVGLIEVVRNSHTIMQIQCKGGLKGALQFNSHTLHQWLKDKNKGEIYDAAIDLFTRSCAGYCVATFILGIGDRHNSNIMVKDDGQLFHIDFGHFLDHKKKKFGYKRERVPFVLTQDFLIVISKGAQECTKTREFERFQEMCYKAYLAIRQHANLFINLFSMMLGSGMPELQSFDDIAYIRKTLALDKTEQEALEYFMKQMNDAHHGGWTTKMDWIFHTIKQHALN
Sequence of PI3 kinase alpha (P27986 whole entry partner): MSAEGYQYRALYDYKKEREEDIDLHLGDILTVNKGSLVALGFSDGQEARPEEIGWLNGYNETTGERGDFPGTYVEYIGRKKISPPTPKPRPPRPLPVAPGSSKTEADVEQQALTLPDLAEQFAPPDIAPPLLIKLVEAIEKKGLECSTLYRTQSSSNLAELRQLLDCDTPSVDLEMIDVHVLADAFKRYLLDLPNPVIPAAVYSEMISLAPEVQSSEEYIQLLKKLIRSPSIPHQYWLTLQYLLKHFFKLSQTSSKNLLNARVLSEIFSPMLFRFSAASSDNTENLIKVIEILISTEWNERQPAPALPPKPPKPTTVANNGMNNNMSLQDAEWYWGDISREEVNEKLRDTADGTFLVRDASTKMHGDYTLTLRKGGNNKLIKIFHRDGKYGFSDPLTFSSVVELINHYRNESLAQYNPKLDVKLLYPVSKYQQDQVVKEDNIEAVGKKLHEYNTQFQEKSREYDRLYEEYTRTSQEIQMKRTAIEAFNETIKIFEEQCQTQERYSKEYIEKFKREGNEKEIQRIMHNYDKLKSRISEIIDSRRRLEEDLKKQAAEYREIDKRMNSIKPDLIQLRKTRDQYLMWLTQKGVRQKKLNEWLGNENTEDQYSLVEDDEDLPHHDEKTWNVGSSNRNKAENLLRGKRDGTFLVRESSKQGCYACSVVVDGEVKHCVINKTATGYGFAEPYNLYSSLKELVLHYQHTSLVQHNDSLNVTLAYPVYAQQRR

| Compound | IC50 [1] | EC50 ([2]; A2780 cells) | EC50 ([3]; ovarian cancer cell line A2780) | IC50 ([1]; Biological Method 1) | EC50 ([2]; A2780, Biological Method 2) | EC50 [3, 4] | EC50 ([2]; A2780) |
| --- | --- | --- | --- | --- | --- | --- | --- |
| CC(=O)c1ccccc1Nc1cc(-c2ccc(N)nc2)nc(N2CCOCC2)n1 [Compound 172] | < 1 µM | < 1 µM | < 10 µM | – | – | – | – |
| CS(=O)(=O)c1ccc(Nc2cc(-c3cnc(N)cc3C(F)(F)F)nc(N3CCOCC3)n2)cc1 [Compound 173] | < 1 µM | < 1 µM | < 10 µM | – | – | – | – |
| CC(=O)c1cccc(Nc2cc(-c3ccc(N)nc3)nc(N3CCOCC3)n2)c1 [Compound 174] | < 1 µM | < 1 µM | < 10 µM | – | – | – | – |
| Nc1ncc(-c2cc(OC3CCN(C(=O)OCc4ccccc4)CC3)nc(N3CCOCC3)n2)c(C(F)(F)F)n1 [Compound 176] | < 1 µM | < 1 µM | < 10 µM | – | – | – | – |
| COc1ccc2ncc(Nc3nc(N4CCOCC4)nc(-c4cnc(N)nc4)c3C)cc2c1 [Compound 177] | < 1 µM | < 1 µM | < 1 µM | – | – | – | – |
| CCOc1cc(Nc2cc(-c3cnc(N)cc3C(F)(F)F)nc(N3CCOCC3)n2)ccn1 [Compound 178] | < 1 µM | < 1 µM | < 10 µM | – | – | – | – |
| N#Cc1ccc(Nc2cc(-c3ccc(N)nc3)nc(N3CCOCC3)n2)cc1 [Compound 179] | < 1 µM | < 1 µM | < 10 µM | – | – | – | – |
| Nc1ccc(-c2cc(Nc3ccccc3N3CCOCC3)nc(N3CCOCC3)n2)cn1 [Compound 180] | < 1 µM | < 1 µM | < 10 µM | – | – | – | – |
| Nc1ccc(-c2cc(Nc3cnc4ccc(OCCN5CCCC5)cc4c3)nc(N3CCOCC3)n2)cn1 [Compound 181] | < 1 µM | < 1 µM | < 1 µM | – | – | – | – |
| Nc1ccc(-c2cc(Nc3ccncc3)nc(N3CCOCC3)n2)cn1 [Compound 184] | < 1 µM | < 1 µM | < 1 µM | – | – | – | – |
| Cc1nc(N)ncc1-c1nc(N2CCOCC2)nc(Nc2cnc3ccccc3c2)c1C [Compound 185] | < 1 µM | < 1 µM | < 1 µM | – | – | – | – |
| Nc1ncc(-c2cc(O[C@H]3CCCN(C(=O)OC4CCCC4)C3)nc(N3CCOCC3)n2)c(N)n1 [Compound 186] | < 1 µM | < 1 µM | < 10 µM | – | – | – | – |
| Nc1ccc(-c2cc(Nc3ccccc3S(N)(=O)=O)nc(N3CCOCC3)n2)cn1 [Compound 187] | < 1 µM | < 1 µM | < 10 µM | – | – | – | – |
| CC(C)N1CC[C@H](Oc2ccc(Nc3cc(-c4cnc(N)cc4C(F)(F)F)nc(N4CCOCC4)n3)cn2)C1 [Compound 188] | < 1 µM | < 1 µM | < 10 µM | – | – | – | – |
| Nc1ncc(-c2cc(NC(=O)c3cccnc3)nc(N3CCOCC3)n2)cn1 [Compound 189] | < 1 µM | < 1 µM | < 10 µM | – | – | – | – |
| Nc1ccc(-c2cc(Nc3ccc(S(N)(=O)=O)cc3)nc(N3CCOCC3)n2)cn1 [Compound 190] | < 1 µM | < 1 µM | < 10 µM | – | – | – | – |
| N#Cc1cnccc1Nc1cc(-c2ccc(N)nc2)nc(N2CCOCC2)n1 [Compound 191] | < 1 µM | < 1 µM | < 10 µM | – | – | – | – |
| Cc1c(-c2ccc(Nc3ncc(-c4ccccc4)s3)nc2)nc(N2CCOCC2)nc1-c1cnc(N)nc1 [Compound 194] | < 1 µM | < 1 µM | < 10 µM | – | – | – | – |
| Nc1ccc(-c2cc(Nc3cnc4ccccc4c3)nc(N3CCOCC3)n2)c(Cl)n1 [Compound 195] | < 1 µM | < 1 µM | < 1 µM | – | – | – | – |
| Nc1ccc(-c2cc(Nc3ccncc3F)nc(N3CCOCC3)n2)cn1 [Compound 196] | < 1 µM | < 1 µM | < 1 µM | – | – | – | – |

| Compound | IC50 [1] | EC50 ([2]; A2780 cells) | EC50 ([3]; ovarian cancer cell line A2780) | IC50 ([1]; Biological Method 1) | EC50 ([2]; A2780, Biological Method 2) | EC50 [3, 4] | EC50 ([2]; A2780) |
| --- | --- | --- | --- | --- | --- | --- | --- |
| NC(=O)c1ccc(Nc2cc(-c3ccc(N)nc3)nc(N3CCOCC3)n2)cc1 [Compound 197] | < 1 µM | < 1 µM | < 10 µM | – | – | – | – |
| COc1ccc(Nc2cc(-c3cnc(N)cc3C(F)(F)F)nc(N3CCOCC3)n2)cn1 [Compound 199] | – | – | – | < 1 µM | < 1 µM | < 10 µM | – |
| COc1cc(N)ncc1-c1cc(Nc2cnc3ccccc3c2)nc(N2CCOCC2)n1 [Compound 200] | – | – | – | < 1 µM | < 1 µM | < 1 µM | – |
| Cc1cc(N)ncc1-c1cc(Nc2cnc3ccccc3c2)nc(N2CCOCC2)n1 [Compound 201] | – | – | – | < 1 µM | < 1 µM | < 1 µM | – |
| Nc1ncc(-c2cc(Nc3cnc4ccccc4c3)nc(N3CCOCC3)n2)cc1F [Compound 202] | – | – | – | < 1 µM | < 1 µM | < 1 µM | – |
| CC(C)Oc1ncccc1Nc1cc(-c2cnc(N)cc2C(F)(F)F)nc(N2CCOCC2)n1 [Compound 204] | – | – | – | < 1 µM | < 1 µM | < 25 µM | – |
| CC(=O)Nc1cc(-c2cnc(N)nc2)nc(N2CCOCC2)n1 [Compound 205] | – | – | – | < 1 µM | < 1 µM | < 10 µM | – |
| COc1ccc2ncc(Nc3cc(-c4cnc(N)nc4)nc(N4CCOCC4)n3)cc2c1 [Compound 206] | – | – | – | < 1 µM | < 1 µM | < 1 µM | – |
| Nc1cc(C(F)(F)F)c(-c2cc(Nc3cccc(S(=O)(=O)N4CCCCC4)c3)nc(N3CCOCC3)n2)cn1 [Compound 207] | – | – | – | < 1 µM | < 10 µM | < 1 µM | – |
| CS(=O)(=O)c1ccc(Nc2cc(-c3cnc(N)[nH]c3=O)nc(N3CCOCC3)n2)cn1 [Compound 208] | – | – | – | < 1 µM | < 10 µM | < 25 µM | – |
| N#Cc1cc(-c2cnc(N)cc2C(F)(F)F)nc(N2CCOCC2)n1 [Compound 209] | – | – | – | < 1 µM | < 10 µM | < 10 µM | – |
| Nc1cc(C(F)(F)F)c(-c2cc(N3CCOc4ccccc43)nc(N3CCOCC3)n2)cn1 [Compound 210] | – | – | – | < 1 µM | < 10 µM | < 10 µM | – |
| COc1ccc2ncc(Nc3cc(-c4ccc(N)nc4)nc(N4CCOCC4)n3)cc2c1 [Compound 211] | – | – | – | < 1 µM | < 10 µM | < 1 µM | – |
| Cc1c(Nc2ccc(OC(CO)CO)nc2)nc(N2CCOCC2)nc1-c1cnc(N)nc1 [Compound 212] | – | – | – | < 1 µM | < 10 µM | < 25 µM | – |
| CCc1c(Nc2cnc3ccccc3c2)nc(N2CCOCC2)nc1-c1ccc(N)nc1 [Compound 213] | – | – | – | < 1 µM | < 10 µM | < 1 µM | – |
| CS(=O)(=O)c1ccc(Nc2cc(-c3cnc(N)nc3N)nc(N3CCOCC3)n2)cn1 [Compound 214] | – | – | – | < 1 µM | < 10 µM | < 25 µM | – |
| Cc1c(-c2cnc(N)nc2)nc(N2CCOCC2)nc1-c1ccnc(Nc2ncc(-c3ccccc3)s2)c1 [Compound 215] | – | – | – | < 1 µM | < 10 µM | < 10 µM | – |
| CC(C)N1CCC(Oc2ccc(Nc3cc(-c4cnc(N)cc4C(F)(F)F)nc(N4CCOCC4)n3)cc2)CC1 [Compound 552] | < 1 µM | – | < 10 µM | – | – | – | < 1 µM |
| COc1cc(Nc2cc(-c3cnc(N)cc3C(F)(F)F)nc(N3CCOCC3)n2)ccc1OC1CCN(C(C)C)CC1 [Compound 553] | < 1 µM | – | < 1 µM | – | – | – | < 1 µM |
